Key:
[1] = target: T1, HCV polymerase (NS5B) type 1b (Hepatitis C virus genotype 1b, UniProt P26663); assay: Assay of enzyme (HCV polymerase) inhibitory activity, type 1b enzyme; format: biochemical, HCV BK strain (type 1b); settings: HCV polymerase inhibitory activity IC50, 1b, type 1b enzyme
T1 construct: a region encoding NS5B (J Virol 1991 March, 65(3), 1105-13, 544 amino acids after deletion of 47 amino acids on the C-terminal); 6xHis (C); made in house; host or cells: Escherichia coli
Method in brief: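 NS5B from HCV BK strain (type 1b), C-terminal 47 aa deleted, C-terminal His6-tagged, E. coli-expressed, 0.5 μg/ml, with ~450 nt substrate RNA carrying the 3′ UTR (polyU, 3′X) at 5 μg/ml. Incubation 60 min at 25 °C with 50 μM ATP/GTP/CTP, 2 μM UTP plus [3H]UTP, pH 7.5 Tris.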

[2] = target: T2, HCV polymerase (NS5B) type 1a (Hepatitis C virus genotype 1a, UniProt P26664); assay: Assay of enzyme (HCV polymerase) inhibitory activity, type 1a enzyme; format: biochemical, HCV type 1a (cloned from the blood of patients); settings: HCV polymerase inhibitory activity IC50, 1a, type 1a enzyme
T2 construct: made in house; host or cells: Escherichia coli (by the 'similar method' of the 1b enzyme)
Method in brief: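 Patient-derived type 1a NS5B (C-terminal 47-aa deletion, His-tagged, E. coli-expressed) at 1.5 μg/ml was reacted with 5 μg/ml 3′UTR-containing substrate RNA, 50 μM ATP/GTP/CTP, 2 μM UTP plus [3H]UTP, pH 7.5, 25° C for 60 min. TCA-precipitated RNA radioactivity was counted; IC50 from ± compound.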

SMILES: N#Cc1ncc2sc(N3CCN(S(=O)(=O)c4ccc(OC(F)(F)F)cc4)[C@@H](C(=O)NCc4ccc(OC(F)(F)F)cc4)C3)nc2n1 [Example 964, (R)-4-(5-cyano-thiazolo[4,5-d]pyrimidin-2-yl)-1-(4-trifluoromethoxy-benzenesulfonyl)-piperazine-2-carboxylic acid 4-trifluoromethoxy-benzylamide]
- IC50 [1]: < 100 nM
- IC50 [2]: < 100 nM

SMILES: COc1ccc(CNC(=O)[C@H]2CN(c3nc4nc(Cl)ncc4s3)CCN2S(=O)(=O)c2ccc(OC(F)(F)F)cc2)cc1 [Example 965, (R)-4-(5-chloro-thiazolo[4,5-d]pyrimidin-2-yl)-1-(4-trifluoromethoxy-benzenesulfonyl)-piperazine-2-carboxylic acid 4-methoxy-benzylamide]
- IC50 [1]: < 100 nM
- IC50 [2]: < 100 nM

SMILES: O=C(NCc1ccc(OCF)cc1)[C@H]1CN(c2nc3nc(Cl)ncc3s2)CCN1S(=O)(=O)c1ccc(OC(F)(F)F)cc1 [Example 966, (R)-4-(5-chloro-thiazolo[4,5-d]pyrimidin-2-yl)-1-(4-trifluoromethoxy-benzenesulfonyl)-piperazine-2-carboxylic acid 4-fluoromethoxy-benzylamide]
- IC50 [1]: < 100 nM
- IC50 [2]: < 100 nM

SMILES: O=C(NCc1ccc(OCF)cc1)[C@H]1CN(c2nc3ncncc3s2)CCN1S(=O)(=O)c1ccc(OC(F)(F)F)cc1 [Example 967, (R)-4-thiazolo[4,5-d]pyrimidin-2-yl-1-(4-trifluoromethoxy-benzenesulfonyl)-piperazine-2-carboxylic acid 4-fluoromethoxy-benzylamide]
- IC50 [1]: < 100 nM
- IC50 [2]: < 100 nM

SMILES: O=C(NCc1ccc(OC(F)F)cc1)[C@H]1CN(c2nc3nc(Cl)ncc3s2)CCN1S(=O)(=O)c1ccc(C(F)(F)F)cc1 [Example 968, (R)-4-(5-chloro-thiazolo[4,5-d]pyrimidin-2-yl)-1-(4-trifluoromethyl-benzenesulfonyl)-piperazine-2-carboxylic acid 4-difluoromethoxy-benzylamide]
- IC50 [1]: < 100 nM
- IC50 [2]: < 100 nM

SMILES: O=C(NCc1ccc(OC(F)F)cc1)[C@H]1CN(c2nc3ncncc3s2)CCN1S(=O)(=O)c1ccc(C(F)(F)F)cc1 [Example 969, (R)-4-thiazolo[4,5-d]pyrimidin-2-yl-1-(4-trifluoromethyl-benzenesulfonyl)-piperazine-2-carboxylic acid 4-difluoromethoxy-benzylamide]
- IC50 [1]: < 100 nM
- IC50 [2]: < 100 nM

SMILES: Cc1ncc2sc(N3CCN(S(=O)(=O)c4ccc(C(F)(F)F)cc4)[C@@H](C(=O)NCc4ccc(OC(F)F)cc4)C3)nc2n1 [Example 970, (R)-4-(5-methyl-thiazolo[4,5-d]pyrimidin-2-yl)-1-(4-trifluoromethyl-benzenesulfonyl)-piperazine-2-carboxylic acid 4-difluoromethoxy-benzylamide]
- IC50 [1]: < 100 nM
- IC50 [2]: < 100 nM

SMILES: O=C(NCc1ccc(C2CC2)cc1)[C@H]1CN(c2nc3nc(Cl)ncc3s2)CCN1S(=O)(=O)c1ccc(OC(F)(F)F)cc1 [Example 971, (R)-4-(5-chloro-thiazolo[4,5-d]pyrimidin-2-yl)-1-(4-trifluoromethoxy-benzenesulfonyl)-piperazine-2-carboxylic acid 4-cyclopropyl-benzylamide]
- IC50 [1]: < 100 nM
- IC50 [2]: < 100 nM

SMILES: O=C(NCc1ccc(OC(F)(F)F)cc1)[C@H]1CN(c2nc3nc(F)ncc3s2)CCN1S(=O)(=O)c1ccc(OC(F)(F)F)cc1 [Example 972, (R)-4-(5-fluoro-thiazolo[4,5-d]pyrimidin-2-yl)-1-(4-trifluoromethoxy-benzenesulfonyl)-piperazine-2-carboxylic acid 4-trifluoromethoxy-benzylamide]
- IC50 [1]: < 100 nM
- IC50 [2]: < 100 nM

SMILES: CC(C)Nc1ncc2sc(N3CCN(S(=O)(=O)c4ccc(OC(F)(F)F)cc4)[C@@H](C(=O)NCc4ccc(OC(F)(F)F)cc4)C3)nc2n1 [Example 973, (R)-4-(5-isopropylamino-thiazolo[4,5-d]pyrimidin-2-yl)-1-(4-trifluoromethoxy-benzenesulfonyl)-piperazine-2-carboxylic acid 4-trifluoromethoxy-benzylamide]
- IC50 [1]: < 100 nM
- IC50 [2]: < 100 nM

SMILES: CCN(CC)c1nc(Br)nc2nc(N3CCN(S(=O)(=O)c4ccc(C(F)(F)F)cc4)[C@@H](C(=O)NCc4ccc(OC(F)(F)F)cc4)C3)sc12 [Example 974, (R)-4-(5-bromo-7-diethylamino-thiazolo[4,5-d]pyrimidin-2-yl)-1-(4-trifluoromethyl-benzenesulfonyl)-piperazine-2-carboxylic acid 4-trifluoromethoxy-benzylamide]
- IC50 [1]: > 1000 nM
- IC50 [2]: > 1000 nM

SMILES: O=C(NCc1ccc(OC(F)(F)F)cc1)[C@H]1CN(c2nc3nc(C4CC4)ncc3s2)CCN1S(=O)(=O)c1ccc(OC(F)(F)F)cc1 [Example 975, (R)-4-(5-cyclopropyl-thiazolo[4,5-d]pyrimidin-2-yl)-1-(4-trifluoromethoxy-benzenesulfonyl)-piperazine-2-carboxylic acid 4-trifluoromethoxy-benzylamide]
- IC50 [1]: < 100 nM
- IC50 [2]: < 100 nM

SMILES: O=C(NCc1ccc(C2CC2)cc1)[C@H]1CN(c2nc3ncncc3s2)CCN1S(=O)(=O)c1ccc(OC(F)(F)F)cc1 [Example 976, (R)-4-thiazolo[4,5-d]pyrimidin-2-yl-1-(4-trifluoromethoxy-benzenesulfonyl)-piperazine-2-carboxylic acid 4-cyclopropyl-benzylamide]
- IC50 [1]: < 100 nM
- IC50 [2]: < 100 nM

SMILES: O=C(NCc1ccc(OC(F)(F)F)cc1)[C@H]1CN(c2nn3ccc(=O)nc3s2)CCN1S(=O)(=O)c1ccc(OC(F)(F)F)cc1 [Example 977, (R)-4-(7-oxo-7H-[1,3,4]thiadiazolo[3,2-a]pyrimidin-2-yl)-1-(4-trifluoromethoxy-benzenesulfonyl)-piperazine-2-carboxylic acid 4-trifluoromethoxy-benzylamide]
- IC50 [1]: < 100 nM
- IC50 [2]: < 100 nM

SMILES: CC(=O)c1sc(N2CCN(S(=O)(=O)c3ccc(OC(F)(F)F)cc3)[C@@H](C(=O)NCc3ccc(OC(F)(F)F)cc3)C2)nc1C [Example 978, (R)-4-(5-acetyl-4-methyl-thiazol-2-yl)-1-(4-trifluoromethoxy-benzenesulfonyl)-piperazine-2-carboxylic acid 4-trifluoromethoxy-benzylamide]
- IC50 [1]: < 100 nM
- IC50 [2]: < 100 nM

SMILES: NC(=O)c1ncc2sc(N3CCN(S(=O)(=O)c4ccc(OC(F)(F)F)cc4)[C@@H](C(=O)NCc4ccc(OC(F)(F)F)cc4)C3)nc2n1 [Example 979, 2-[(R)-4-(4-trifluoromethoxy-benzenesulfonyl)-3-(4-trifluoromethoxy-benzylcarbamoyl)-piperazin-1-yl]-thiazolo[4,5-d]pyrimidine-5-carboxylic acid amide]
- IC50 [1]: < 100 nM
- IC50 [2]: < 100 nM

SMILES: Cc1nn(C)c2nc(N3CCN(S(=O)(=O)c4ccc(OC(F)(F)F)cc4)[C@@H](C(=O)NCc4ccc(OC(F)(F)F)cc4)C3)sc12 [Example 980, (R)-4-(1,3-dimethyl-1H-pyrazolo[3,4-d]thiazol-5-yl)-1-(4-trifluoromethoxy-benzenesulfonyl)-piperazine-2-carboxylic acid 4-trifluoromethoxy-benzylamide]
- IC50 [1]: < 100 nM
- IC50 [2]: < 100 nM
